Measurements published in patent publication US4791215A, “Derivatives of glutamic acid and aspartic acid” (priority 1984, dated 1988).
“And” between values parts separate entries of the source, which are not always exact repeats. Equal entries are not always repeated.

Legend:
[1] = test system: CCK-8 induced contraction of guinea pig gall bladder; assay: Anti-CCK-8 activity on gall bladders in situ; assay type: in vivo; conditions: for percentage inhibition of contracting effect of CCK-8: single experiments; for ED50: Cavia porcellus, iv, CCK-8 10 ng/kg i.v., read-out: ED50 (inhibition of 50% of contracting effect of CCK-8)
Experimental: In order to confirm the evidence of the studies in vitro several of the more interesting compounds were tested in vivo on guinea pig gall baldders in situ.
The method used is that described by Ljungberg (Svensk. Farm. Tidskr. 68, 351-354, 1964).
Guinea pigs having a weight of about 400 g, anaesthetised with urethane, were used; the substances under examination were administered intraveneously into the jugular vein.
The responses of the gall bladders to the substances under test were detected by means of a force transducer and recorded by means of a microdynamometer. The optimum contracting dose was chosen as 10 ng/kg of CCK-8. The antagonist compounds tested were administered in increasing doses so as to enable the calculation of an ED50 value, that is in the dose (in mg/kg i.v.) capable of inhibiting 50% of the contracting effect of 10 ng/kg i.v. of CCK-8.
The results obtained are given in Table 7 below, which gives the doses used and the effects obtained expressed as a percentage inhibition of the contracting effect of CCK-8 as well as the ED50 found.

[2] = test system: CCK-8 induced contraction of guinea pig gall bladder; assay: Anti-CCK activity on gall bladder strips in vitro; conditions: CCK-8 10 ng/ml
Outline: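 CCK-8 at 10 ng/ml drove isometric contraction of guinea pig gall bladder strips held at 32 °C in oxygenated Krebs (O2/CO2 95:5). Antagonism was measured at graded compound concentrations and reported as ED50, in μg/ml, for 50% inhibition of the contraction.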

[3] = test system: intestinal transit of carbon; assay: Anti-spastic activity, vegetable carbon intestinal transit test; assay type: in vivo, mice; conditions: Mus musculus, ip; read-out: antispastic activity ED50 (dose reducing intestinal transit of carbon by 50%)
Source text: The anti-spastic activity which the present compounds exert on the entire digestive system is also notable. Measured in mice with the vegetable carbon test (rate of transit through the stomach and the intestine), this activity is illustrated in the following table.
claimed administered intraperitoneally in mice. Values
expressed as the ED 50 in mg/kg, that is the dose which
reduces the intestinal transit of carbon by 50%

morphine analgesia = assay: Increase in analgesia of morphine, Tail Flick Test (Experiment 1); assay type: in vivo, rats; conditions: for percentage variation of latency of pain sensation / M (10-90) ± SE, mean percentage variation of latency: compound 10 mg/kg i.p. + morphine 2 mg/kg; for M (10-90) ± SE, mean percentage variation of latency: mean 10-90 min; for Power ratio with respect to morphine alone: rat, in vivo
Outline: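 Tail-flick latency to 75 °C radiant heat, capped at 8 s, measured in male non-fasted rats weighing 150-200 g. Percentage change per animal derived from pre-treatment baseline versus post-drug readings at 10-90 min (10, 20, 30, 45, 60, 90 min).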

[4] = test system: endogenous opiates analgesia; assay: Analgesic activity of endogenous opiates released by transcutaneous shock, Tail Flick Test (Experiment 3); assay type: in vivo, rats
Experimental: Experiment No. 3: Influence of several of the compounds of the invention on the analgesic activities of endogenous opiates released by transcutaneous shock in rats and measured by the Tail Flick Test
The method is that described by Lewis et al. J. Neurosc. 1, 358 […]. Male rats which have not fasted and have a weight of about 200 g are used.
The animals are stressed by the application of a 60 Hz-2.5 mA current to the front leg in pulses of a duration of 1 second every 5 seconds for 20 minutes.
This stress regime induces the release of endogenous opiates.

biliary flow = assay: Biliary flow (choleretic activity); assay type: in vivo, rat; conditions: for ED50: Rattus norvegicus, iv, average over 2 hours, read-out: ED50 (dose causing 50% increase in biliary flow)
Experimental: The following experiment was carried out: a cannula was inserted in the bile duct of a rat anaesthetised with urethane, together with a small needle connected to a polythene tube, and the bile liquid was thus collected. The collection was carried out for one hour before the intravenous administration of the tested compounds and for a further two hours after administration, the samples collected at 30 minute intervals being weighed.
In order to prevent possible dehydration of the animals, 0.5 ml of physiological solution was administered at 30 minute intervals up to a total of 3 ml.

SMILES	ED50 (concentration antagonising 50% of contracting effect of CCK-8) [2] [µg/mL]	ED50 [3] [mg/kg]	percentage variation of latency of pain sensation (morphine analgesia; 10') [%]	percentage variation of latency of pain sensation (morphine analgesia; 20') [%]	percentage variation of latency of pain sensation (morphine analgesia; 30') [%]	percentage variation of latency of pain sensation (morphine analgesia; 45') [%]	percentage variation of latency of pain sensation (morphine analgesia; 60') [%]	percentage variation of latency of pain sensation (morphine analgesia; 90') [%]	M (10-90) ± SE, mean percentage variation of latency (morphine analgesia) [%]	Power ratio with respect to morphine alone (morphine analgesia)	further results
CCCCCN(CCCCC)C(=O)C(CCC(=O)O)NC(=O)c1ccc(Cl)cc1 (centres unmarked) [Compound C-4]	1.1	38.8	44.6 ± 5.3	67.5 ± 13.4	66.3 ± 14.0	60.4 ± 16.3	59.8 ± 17.0	44.2 ± 14.8	57.1	1.92	percentage inhibition of contracting effect of CCK-8 ([1]; 0.03 mg/kg i.v.): -11.8%; percentage inhibition of contracting effect of CCK-8 ([1]; 1 mg/kg i.v.): -92.1% and -88.5%; ED50 [1]: 0.3 mg/kg
CCCCN(CCCC)C(=O)C(CCC(=O)O)NC(=O)c1ccc(I)cc1 (centres unmarked) [Compound C-27]	10.2	40.3	52.3 ± 13.0	81.4	90.2 ± 7.0	85.9 ± 10.0	60.3 ± 15.0	50.3 ± 13.0	70.0 ± 17.8	2.35	
CCCN(CCC)C(=O)C(CCC(=O)O)NC(=O)c1cccc(C)c1 (centres unmarked) [Compound C-28]	> 300	91.8	15.7 ± 10	66.8 ± 18	68.3 ± 20	68.4 ± 17	74.5 ± 11	27.5 ± 15	53.5 ± 25	1.80	
CCCN(CCC)C(=O)C(CCC(=O)O)NC(=O)c1cc(C)cc(C)c1 (centres unmarked) [Compound C-31]	22.9		28.9 ± 17	43.3 ± 25	54.7 ± 22	68.0 ± 22	57.4 ± 16	49.5 ± 19	50.4 ± 14	1.69	percentage inhibition of contracting effect of CCK-8 ([1]; 30 mg/kg i.v.): 82.1% and 92.5% and 58.7%; ED50 [1]: 16.3 mg/kg
CCCN(CCC)C(=O)C(CCC(=O)O)NC(=O)c1ccc(CC)cc1 (centres unmarked) [Compound C-34]	40.1	65.5	19.6 ± 23	59 ± 17	85.5 ± 10	78.4 ± 16	67 ± 20	59.1	60.6 ± 23	2.03	average latency, Tail Flick ([4]; compound 1 mg/kg iv + stress, 5'): 5.40 ± 0.35 s; average latency, Tail Flick ([4]; compound 1 mg/kg iv + stress, 10'): 4.9 ± 0.25 s; average latency, Tail Flick ([4]; compound 1 mg/kg iv + stress, 15'): 3.4 ± 0.16 s; average latency, Tail Flick ([4]; compound 3 mg/kg iv + stress, 5'): 6.56 ± 0.33 s; average latency, Tail Flick ([4]; compound 3 mg/kg iv + stress, 10'): 5.58 ± 0.31 s; average latency, Tail Flick ([4]; compound 3 mg/kg iv + stress, 15'): 3.98 ± 0.32 s
CCCc1ccc(C(=O)NC(CCC(=O)O)C(=O)N(CCC)CCC)cc1 (centres unmarked) [Compound C-35]	367.1	181	39.9 ± 15	62.3 ± 23	13.7	63.2 ± 17	61.3 ± 20	28.8 ± 31	44.9 ± 21	1.51	% increase in biliary flow with respect to controls (biliary flow; 12.5 mg/kg i.v.): +9.6%; % increase in biliary flow with respect to controls (biliary flow; 25 mg/kg i.v.): +51.9%; % increase in biliary flow with respect to controls (biliary flow; 50 mg/kg i.v.): +91.9%; % increase in biliary flow with respect to controls (biliary flow; 100 mg/kg i.v.): +159.7%; ED50 (biliary flow): 29.5 mg/kg
CCCCc1ccc(C(=O)NC(CCC(=O)O)C(=O)N(CCC)CCC)cc1 (centres unmarked) [Compound C-37]		160	27.6 ± 13	45.8 ± 18	55.0 ± 16	51.1	23.4 ± 21	12.4 ± 13	35.9 ± 17	1.20	
CCCc1ccc(C(=O)NC(CCC(=O)O)C(=O)N(CC)CC)cc1 (centres unmarked) [Compound C-41]		182	32.1 ± 18	60.0 ± 22	40.0 ± 17	46.7 ± 23	11.5	7.4 ± 20	32.9 ± 20	1.10	
CCCCCCNC(=O)C(CCC(=O)O)NC(=O)c1ccc(C)c(C)c1 (centres unmarked) [Compound C-46]		66.9	14.7 ± 9	60.0 ± 18	28.0 ± 5	55.2 ± 20	30.2 ± 17	12.2 ± 11	32.9 ± 21	1.10	
CCCCN(CCCC)C(=O)CCC(NC(=O)c1cccc(C#N)c1)C(=O)O [Compound D-5]	> 200	74.9	72.2	92.5 ± 7.0	95.3 ± 5.0	96.0 ± 4.0	74.3 ± 11.0	75.5	84.3 ± 11.4	2.83	
N#Cc1cccc(C(=O)NC(CCC(=O)N2CCCCC2)C(=O)O)c1 [Compound D-11]	> 200		25.3 ± 7.0	68.3	74.8 ± 18.0	82.8 ± 17.0	86.2 ± 14.0	77.5 ± 13.0	69.1	2.32	% increase in biliary flow with respect to controls (biliary flow; 12.5 mg/kg i.v.): +33.7%; % increase in biliary flow with respect to controls (biliary flow; 25 mg/kg i.v.): +80.0%; % increase in biliary flow with respect to controls (biliary flow; 50 mg/kg i.v.): +118.8%; ED50 (biliary flow): 18.5 mg/kg
